ChEMBL document CHEMBL1141894, “Synthesis and biological properties of novel sphingosine derivatives” (Bioorg Med Chem Lett, 2005)
pIC50: −log10 of the molar value.

Tested on: HL-60
Assay: Inhibitory concentration against [Ca2+] ion increase in HL60 cell induced by natural sphingosine-1-phosphate
Format: functional, cell-based
Conditions: Homo sapiens

N[C@@H](COP(=O)(O)O)[C@@H](O)c1ccccc1
pIC50: 6.75

N[C@@H](COP(=O)(O)O)[C@@H](O)c1ccc([N+](=O)[O-])cc1
pIC50: 7.25

N[C@@H](COP(=O)(O)O)[C@@H](O)/C=C/c1ccccc1
pIC50: 7.43

CSc1ccc([C@H](O)[C@@H](N)COP(=O)(O)O)cc1
pIC50: 7.82

CCCCCCCCCCCCC/C=C/[C@H](O)[C@@H](N)COP(=O)(O)O
pIC50: 7.51

CCCCCCCCCC/C=C/[C@H](O)[C@@H](N)COP(=O)(O)O
pIC50: 7.82

N[C@@H](CBr)[C@@H](O)c1ccccc1
pIC50: 7.15

CSc1ccc([C@H](O)[C@@H](N)CBr)cc1
pIC50: 7.74
